# According to US20070032461A1, “1,3 Aclyated 24-keto-vitamin d3 compounds and methods of use thereof” (BioXell S.p.A., priority 2003, published 2007):
# Key:
# [1] = tested on: ILT3 surface molecule expression on immature dendritic cells; assay: ILT3 upregulation on monocyte-derived immature dendritic cells, flow cytometric analysis; format: cell-based, human; settings: immature dendritic cells cultured 24 hours with graded doses, up to 1000 nM
# Experimental: Immature dendritic cells (DC) were prepared as described in Romani, N. et al. (Romani, N. et al. (1996) J. Immunol. Meth. 196:137). Briefly, peripheral blood mononuclear cells (PBMCs) were obtained from a buffy coat by ficoll-hypaque gradient (Pharmacia Biotec AB, Upsala, Sweden) and monocytes isolated from PBMCs by negative selected with a monocyte isolation kit (Milteny, Biotech, Bergish Gladblach, Germany). After isolation, monocytes were cultured for 6 to 7 days at a cell density of 1-2×10^6 in RPMI medium supplemented with 5% FetalClone I (Hyclone Laboratories, Logan, Utah) 2 mM L-glutamine, […], 1 mM sodium pyruvate and 1% nonessential amino acids, containing 800 U/ml GM-CSF (Mielogen 300, Schering-Plough) and 10 ng/ml interleukin (IL)-4 (PharMingen, San Diego, Calif.). Every other day, approximately 20% of the medium was removed and replaced by the same volume of fresh medium containing GM-CSF and IL-4.
# After 6 to 7 days of culture, non-adherent cells (representing immature Dendritic Cells) were harvested and cultured for 24 hours in the presence of graded doses of the following vitamin D compounds: 1,25(OH)2D3; 1,3-O-Diacetyl-1,25 Dihydroxy-16-ene-24-Keto-19-nor Cholecalciferol (compound (2)); and the compounds Mycophenolate Mofetil (MMF) and Dexamethasone (DEX).
# Immunoglobulin-Hike transcript-3 upregulation was evaluated by flow cytometric analysis. Briefly, cells were preincubated with […] human IgG (Sigma Chemical, St. Louis, Mo.) and subsequently stained with anti-human ILT3 antibody (see, e.g., Cella, M. et al. (1997) J. Exp. Med. 185:1743) followed by anti-mouse IgG-phycoerithryn (Jackson). Cells were then analyzed with a FACScan® flow cytometer using a Cell Quests software program (both from Beckton Dickinson, Mountain View, Calif.).
# [2] = Maximum tolerated dose (MTD) without inducing hypercalcemia, oral daily dosing for four days, serum calcium assay; format: in vivo, C57BL/6 mice
# Experimental: The maximum tolerated dose of the vitamin D3 compounds of the invention were determined in eight week-old female C57BL/6 mice (3 mice/group) dosed orally (0.1 ml/mouse) with various concentrations of Vitamin D3 analogs daily for four days. Analogs were formulated in miglyol for a final concentration of 0.01, 0.03, 0.1 0.3, 1, 3, 10, 30, 100 and 300 μg/kg when given at 0.1 ml/mouse p.o. daily. Blood for serum calcium assay was drawn by tail bleed on day five, the final day of the study. Serum calcium levels were determined using a colorimetric assay (Sigma Diagnostics, procedure no. 597). The highest dose of analog tolerated without inducing hypercalcemia (serum calcium >10.7 mg /dl) was taken as the maximum tolerated dose (MTD).
# [3] = tested on: IFN-γ production in MLR (allogeneic PBMC); assay: IFN-γ production by allogeneic T cell activation in the mixed leukocyte response (MLR), ELISA; format: cell-based; settings: 120 h, MLR of allogeneic PBMC from 2 donors, 5 days, read-out: INF-γ IC50
# Experimental: Immature dendritic cells (DC) were prepared as described in Romani, N. et al. (Romani, N. et al. (1996) J. Immunol. Meth. 196:137). IFN-γ production by allogeneic T cell activation in the mixed leukocyte response (MLR) was determined as described in Penna, G., et al., J. Immunol., 164: 2405-2411 (2000).
# Briefly, peripheral blood mononuclear cells (PBMC) were separated from buffy coats by Ficoll gradient and the same number (3×10^5) of allogeneic PBMC from 2 different donors were co-cultured in 96-well flat-bottom plates. After 5 days, IFN-γ production in the MLR assay was measured by ELISA and the results expressed as amount (nM) of test compound required to induce 50% inhibition of IFN-γ production (IC50).
# [4] = female C57BL/6 mice, p.o. daily for four days, highest dose without hypercalcemia (serum calcium >10.7 mg/dl)
compound,measurement,setting,value
"COc1c(C)c2c(c(O)c1C/C=C(\C)CCC(=O)OCCN1CCOCC1)C(=O)OC2 [MMF, Mycophenolate Mofetil]",ILT3 expression on cell surface,[1],fail to upregulate
"CC(=O)O[C@@H]1CC(=C/C=C2\CCC[C@]3(C)C([C@H](C)CCC(=O)C(C)(C)O)=CCC23)C[C@@H](OC(C)=O)C1 (some centres unmarked) [Compound (2), 1,3-O-Diacetyl-1,25-Dihydroxy-16-ene-24-Keto-19-nor-Cholecalciferol]",MTD relative to compound (1),"[2]; mice, oral, ratio of the MTD of compound (2) to that of the corresponding dihydroxy compound (1)",more than 300 times
same,MTD at 4 days,"[2]; mouse, po, female C57BL/6 mice, p.o. daily for four days, highest dose without hypercalcemia (serum calcium >10.7 mg/dl)",> 300 µg/kg
same,IC50,[3],8 pM
same,ILT3 expression on cell surface,[1],upregulated
"CC(CCC(=O)C(C)(C)O)C1=CCC2C(=CC=C3CC(O)CC(O)C3)CCCC12C (centres unmarked) [(1), 1,25-dihydroxy-16-ene-24-keto-19-nor-cholecalciferol]",MTD (mice),[2]; [4],1 µg/kg
"1,25(OH)2D3",MTD (mice),[2]; [4],1 µg/kg
same,ILT3 expression on cell surface,[1],upregulated
